Measurements as given in US11440906B2, “Biguanide derivatives and their rearrangement products for use in the treatment of cancer” (CENTRE NATIONAL DE LA RECHERCHE SCIENTIFIQUE, priority 2017, dated 2022).
Where two headings read alike, the source gives them in different places.

Tested on: A375 Sensitive cells
Assay: Viability test, trypan blue exclusion, A375 Sensitive cells
Assay type: cell-based, human
Conditions: Homo sapiens, A-375, viable cells as percentage of DMSO control
Description: Different melanoma cell lines were purchased from the American Tissue Culture Collection: A375 and WM9 cells are mutated on B-Raf, CDKN2A and PTEN proteins; SKmel28 cells are mutated on B-Raf and P53 proteins; 1205Lu cells are mutated on B-Raf and PTEN proteins; G-361 cells are mutated on B-Raf and CDKN2A proteins; C8161 cells are mutated on B-Raf and K-Ras proteins; WM3912 cells are mutated on B-Raf and CDKN2A proteins; MeWo cells are mutated on P53 and CDKN2A proteins; WM3918 presents no mutations on characteristic proteins.
For trypan blue staining, […] of cells (melanoma and normal human cells) were aseptically transferred to a 1.5 mL clear Eppendorf tube and incubated for 3 min at room temperature with an equal volume of 0.4% trypan blue solution. Viable cells were counted and the results are expressed as the percentage of the value of control cells. All the experiments are performed 3 times in triplicate.
A375 Sensitive cells were treated with different concentrations of the synthesized molecules (5.0 μM or 10 μM) for different times (24 hr or 48 hr) or with DMSO (Control) for 12 or 48 hr. At the end of the stimulation, viable cells were counted using the trypan blue dye exclusion method. The results are normalized as percentages compare to the control.
A375 Sensitive cells were treated with 5 μM of CRO15 for different times (2 hr, 4 hr, 6 hr, 8 hr, 12 hr, 24 hr or 48 hr) or with 5 μM of PLX4032 (B-Raf inhibitor) for 48 hr or with DMSO (Control) for 48 hr. At the end of stimulation, viable cells were counted using the trypan blue dye exclusion method. The results are normalized as percentages compare to the control and data means±SEM of three independent experiments performed in triplicate *p<0.05; **p<0.01; ***p<0.001.
A375 Sensitive cells were treated with different concentrations of CRO15 (0.5 μM, 2.5 μM, 5.0 μM, 7.5 μM, 50 μM) for 48 hr or with 5 μM of PLX4032 (B-Raf inhibitor) for 48 hr or with DMSO (Control) for 48 hr. At the end of the stimulation, viable cells were counted using the trypan blue dye exclusion method. The results are normalized as percentages compare to the control and data means±SEM of three independent experiments performed in triplicate *p<0.05; **p<0.01; ***p<0.001.
A375 sensitive and resistant melanoma cells were treated with 5 μM of CRO15 for 48 hr or with 5 μM of PLX4032 for 48 hr or with DMSO (Control). At 48 hours, viable cells were counted using the trypan blue dye exclusion method. The results are normalized as percentages compare to the control and data means±SEM of three independent experiments performed in triplicate *p<0.05; **p<0.01; ***p<0.001.

[1] = 24 h, read-out: Viab A375 5 μM/ 24 h
[2] = 48 h, read-out: Viab A375 5 μM/ 48 h
[3] = 24 h, read-out: Viab A375 10 μM/ 24 h
[4] = 48 h, read-out: Viab A375 10 μM/ 48 h

Row | Compound | viability at 5 µM [1] [%] | viability at 5 µM [2] [%] | viability at 10 µM [3] [%] | viability at 10 µM [4] [%]
1 | Cc1ccc2nc(NC(=N)NC(=N)c3cccc(Br)c3)sc2c1 [MTF 265, 3-bromo-N—(N-(6-methylbenzo[d]thiazol-2-yl)carbamimidoyl)benzimidamide] | 91 | 100 | 84 | 60
2 | N=C(NC(=N)c1cccc(Cl)c1)Nc1nc(-c2ccccc2)cs1 [MTF 267, 3-chloro-N—(N-(4-phenylthiazol-2-yl)carbamimidoyl)benzimidamide] | 113 | 113 | 134 | 73.3
3 | N=C(NC(=N)c1ccccc1)Nc1nc(-c2ccccc2)cs1 [MTF 272, N—(N-(4-phenylthiazol-2-yl)carbamimidoyl)benzimidamide] | 100 | 81 | 88 | 54.6
4 | N=C(NC(=N)c1cccnc1)Nc1nc(-c2ccccc2)cs1 [MTF 273, N—(N-(4-phenylthiazol-2-yl)carbamimidoyl)nicotinimidamide] | 46 | 48 | 100 | 100
5 | N=C(NC(=N)c1ccncc1)Nc1nc(-c2ccccc2)cs1 [MTF 274, N—(N-(4-phenylthiazol-2-yl)carbamimidoyl)isonicotinimidamide] | 83 | 93 | 84 | 89
6 | N=C(NC(=N)c1ccccc1Cl)Nc1nc(-c2cccc([N+](=O)[O-])c2)cs1 [MTF 276, 2-chloro-N—(N-(4-(3-nitrophenyl)thiazol-2-yl)carbamimidoyl)benzimidamide] | 91.6 | 95.3 | 73.9 | 64.9
7 | N=C(NC(=N)c1cccc(Cl)c1)Nc1nc(-c2cccc([N+](=O)[O-])c2)cs1 [MTF 277, 3-chloro-N—(N-(4-(3-nitrophenyl)thiazol-2-yl)carbamimidoyl)benzimidamide] | 77.6 | 88 | 76.4 | 85.8
8 | N=C(NC(=N)c1ccc(Cl)cc1)Nc1nc(-c2cccc([N+](=O)[O-])c2)cs1 [MTF 281, 4-chloro-N—(N-(4-(3-nitrophenyl)thiazol-2-yl)carbamimidoyl)benzimidamide] | 79 | 112 | 57.4 | 78
9 | Cc1csc(NC(=N)NC(=N)c2ccccc2)n1 [MTF 283, N—(N-(4-methylthiazol-2-yl)carbamimidoyl)benzimidamide] | 100 | 56 | 100 | 150
10 | Cc1csc(NC(=N)NC(=N)c2ccccc2Cl)n1 [MTF 284, 2-chloro-N—(N-(4-methylthiazol-2-yl)carbamimidoyl)benzimidamide] | 80.1 | 117 | 104 | 76.9
11 | Cc1csc(NC(=N)NC(=N)c2cccc(Cl)c2)n1 [MTF 285, 3-chloro-N—(N-(4-methylthiazol-2-yl)carbamimidoyl)benzimidamide] | 45 | 100 | 77.8 | 78.7
12 | Cc1csc(NC(=N)NC(=N)c2ccc(Cl)cc2)n1 [MTF 286, 4-chloro-N—(N-(4-methylthiazol-2-yl)carbamimidoyl)benzimidamide] | 48 | 155 | 65.3 | 120
13 | Cc1csc(NC(=N)NC(=N)c2ccccc2Br)n1 [MTF 287, 2-bromo-N—(N-(4-methylthiazol-2-yl)carbamimidoyl)benzimidamide] | 60.9 | 86.7 | 53.7 | 69.5
14 | Cc1csc(NC(=N)NC(=N)c2cccc(Br)c2)n1 [MTF 288, 3-bromo-N—(N-(4-methylthiazol-2-yl)carbamimidoyl)benzimidamide] | 50 | 96.7 | 70 | 53.5
15 | Cc1csc(NC(=N)NC(=N)c2ccccn2)n1 [MTF 289, N—(N-(4-methylthiazol-2-yl)carbamimidoyl)picolinimidamide] | 81.1 | 90.4 | 78.7 | 58.2
16 | Cc1csc(NC(=N)NC(=N)c2cccnc2)n1 [MTF 290, N—(N-(4-methylthiazol-2-yl)carbamimidoyl)nicotinimidamide] | 43.4 | 21.6 | 50.5 | 14.4
17 | Cc1csc(NC(=N)NC(=N)c2ccncc2)n1 [MTF 291, N—(N-(4-methylthiazol-2-yl)carbamimidoyl)isonicotinimidamide] | 100 | 95.2 | 100 | 41.3
18 | COc1ccc(C(=N)NC(=N)Nc2nc(C)cs2)cc1 [MTF 292, 4-methoxy-N—(N-(4-methylthiazol-2-yl)carbamimidoyl)benzimidamide] | 88.1 | 83.3 | 142 | 71.9
19 | Cc1nc(NC(=N)NC(=N)c2ccccc2Br)sc1C [MTF 295, 2-bromo-N—(N-(4,5-dimethylthiazol-2-yl)carbamimidoyl)benzimidamide] | 109 | 37.3 | 66.1 | 39.3
20 | Cc1nc(NC(=N)NC(=N)c2ccccn2)sc1C [MTF 297, N—(N-(4,5-dimethylthiazol-2-yl)carbamimidoyl)picolinimidamide] | 86.2 | 59.8 | 97.9 | 24.9
21 | Cc1nc(NC(=N)NC(=N)c2cccnc2)sc1C [MTF 298, N—(N-(4,5-dimethylthiazol-2-yl)carbamimidoyl)nicotinimidamide] | 97.2 | 73.6 | 87.5 | 54.7
22 | Cc1nc(NC(=N)NC(=N)c2ccncc2)sc1C [MTF 299, N—(N-(4,5-dimethylthiazol-2-yl)carbamimidoyl)isonicotinimidamide] | 91.1 | 76.6 | 72.8 | 46.2
23 | Cc1nc(NC(=N)NC(=N)c2ccccc2Cl)sc1C [MTF 300, 2-chloro-N—(N-(4,5-dimethylthiazol-2-yl)carbamimidoyl)benzimidamide] | 96 | 60 | 50.8 | 35.9
24 | Cc1nc(NC(=N)NC(=N)c2cccc(Cl)c2)sc1C [MTF 301, 3-chloro-N—(N-(4,5-dimethylthiazol-2-yl)carbamimidoyl)benzimidamide] | 74 | 47 | 106 | 31.6
25 | Cc1nc(NC(=N)NC(=N)c2ccc(Cl)cc2)sc1C [MTF 302, 4-chloro-N—(N-(4,5-dimethylthiazol-2-yl)carbamimidoyl)benzimidamide] | 105 | 52.3 | 94.8 | 39.3
26 | Cc1nc(NC(=N)NC(=N)c2ccccc2)sc1C [MTF 303, N—(N-(4,5-dimethylthiazol-2-yl)carbamimidoyl)benzimidamide] | 85.6 | 44.2 | 66.1 | 39.1
27 | N=C(NC(=N)C(Cl)(Cl)Cl)Nc1nc2ccccc2s1 [MTF 305, N—(N-(benzo[d]thiazol-2-yl)carbamimidoyl)-2,2,2-trichloroacetimidamide] | 11 | 20.7 | 5.5 | 4.7
